Data reported in patent US20140328826A1, “PRODUCT AND METHOD FOR TREATING KELOID SCARS, HYPERTROPHIC SCARS AND BURN SCARS WITH CONTRACTURE” (COLE Research & Design, Inc., priority 2013, published 2014).

System: keloid scar
Assay: Intralesional injection of the pharmaceutical composition into keloid scars of patients
Type: in vivo, human
Settings: injected into the keloid scar; general statement, 'often'
Procedure: A pharmaceutical composition was prepared by mixing 1.0 mg of high molecular weight hyaluronic acid (0.1 cc of HYALGAN®, sodium hyaluronate) with 7.5 units of hyaluronidase (HYLENEX® recombinant human hyaluronidase), which was injected into the keloid scar. […] Erythema and tenderness of the keloid scar was also resolved.
A pharmaceutical composition was prepared as in Example 1, and injected into the keloid scar.
The patient also reported a sharp, piercing pain from the keloid scar. A pharmaceutical composition was prepared as in Example 1, and injected into the keloid scar.
A fourth patient had two keloid scars, one on each earlobe. A pharmaceutical composition was prepared as in Example 1, and injected into each of the keloid scars. […] Some itching was reported by the patient.
All four patients responded to the treatment. Overall, there was significant reduction in keloid scar size, with an average of approximately a 22% reduction in length, a 37% reduction in width, and a 45% reduction in height. Even more striking was great reduction in density and hardness of the keloid scar tissue, leaving a soft pliable skin sack after treatment.
Only a few mild adverse reactions were reported. Two patients reported very mild itching from the keloid scars. Some stinging from the injection was also reported. No significant pain or swelling was reported.

## low molecular weight hyaluronic acid
  shrinkage of keloid scar volume: ≥ 50%
